This is an account of results in patent US8377884B2, “Variants of C-type natriuretic peptides” (Biomarin Pharmaceutical Inc., priority 2007, dated 2013).

The structures appear in SMILES notation. Bridge positions count the residues as written; N and C are the ends. Peptide text beside a SMILES is read from it. * marks the point of attachment. MeO(CH2CH2O)23CH2CH2CO = COCCOCCOCCOCCOCCOCCOCCOCCOCCOCCOCCOCCOCCOCCOCCOCCOCCOCCOCCOCCOCCOCCOCCOCCC(=O)* Bounds are passed on as bounds.

In series [1] the target is neutral endopeptidase (NEP) (Homo sapiens, UniProt P08473). Briefly: in vitro. Conditions: human, pH 7. The method, boiled down:
(§1)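 Recombinant human NEP (1 ug/mL final) incubated with 100 uM CNP variant in 0.1 M Tris, pH 7, at 37° C for various times, then quenched with EDTA (10 mM final) and heat. Samples reduced and analysed by HPLC and mass spectrometry. Half-life derived from loss of intact variant over time.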

Series [2] concerns the target T1, NPR-B (Mus musculus, UniProt Q6VVW5).
T1 construct: Murine NIH3T3 cells express endogenously the CNP signaling receptor, NPR-B; endogenous in cells; host or cells: NIH3T3 (murine fibroblasts)
T1 sequence (Q6VVW5 17-1047): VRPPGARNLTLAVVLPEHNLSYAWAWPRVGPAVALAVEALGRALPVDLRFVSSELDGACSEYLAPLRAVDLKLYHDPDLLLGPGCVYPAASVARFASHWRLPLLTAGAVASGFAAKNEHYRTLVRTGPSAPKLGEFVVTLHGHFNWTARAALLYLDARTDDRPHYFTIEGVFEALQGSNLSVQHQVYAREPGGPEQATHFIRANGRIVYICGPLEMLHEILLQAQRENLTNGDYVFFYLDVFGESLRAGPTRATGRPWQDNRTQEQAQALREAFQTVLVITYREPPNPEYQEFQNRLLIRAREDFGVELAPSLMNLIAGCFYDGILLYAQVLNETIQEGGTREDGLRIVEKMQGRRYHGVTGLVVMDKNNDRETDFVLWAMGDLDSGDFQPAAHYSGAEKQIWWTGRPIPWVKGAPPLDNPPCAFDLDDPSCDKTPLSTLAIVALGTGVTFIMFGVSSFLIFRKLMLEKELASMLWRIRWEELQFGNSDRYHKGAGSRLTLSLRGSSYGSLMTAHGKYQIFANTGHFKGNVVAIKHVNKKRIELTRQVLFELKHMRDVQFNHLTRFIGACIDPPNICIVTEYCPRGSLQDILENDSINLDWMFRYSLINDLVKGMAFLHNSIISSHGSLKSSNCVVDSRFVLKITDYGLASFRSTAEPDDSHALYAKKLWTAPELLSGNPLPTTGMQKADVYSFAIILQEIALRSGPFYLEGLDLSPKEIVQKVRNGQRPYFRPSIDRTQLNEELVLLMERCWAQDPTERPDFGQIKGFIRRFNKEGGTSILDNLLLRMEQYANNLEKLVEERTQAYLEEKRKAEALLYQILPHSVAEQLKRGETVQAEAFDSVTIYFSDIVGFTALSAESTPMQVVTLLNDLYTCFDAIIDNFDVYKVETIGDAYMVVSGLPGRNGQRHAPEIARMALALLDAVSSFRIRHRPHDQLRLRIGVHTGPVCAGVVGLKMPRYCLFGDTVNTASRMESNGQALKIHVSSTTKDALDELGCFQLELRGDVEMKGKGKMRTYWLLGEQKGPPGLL
Briefly: Stimulation of cGMP production in NIH3T3 cells. Format: cell-based, Murine. Conditions: NIH3T3 cells, normalized to cell number and cGMP production with 1 uM wtCNP22; for cGMP response relative to 1 uM CNP22 (%) at 0.01 µM: 10 nM natriuretic peptide, read-out: cGMP Response rel. to 1 uM CNP22, 10 nM; for cGMP response relative to 1 uM CNP22 (%) at 1 µM: 1 uM natriuretic peptide, read-out: cGMP Response rel. to 1 uM CNP22, 1 uM.

Series [3] in a line: in vivo. Conditions: male, rat. The procedure: Studies were conducted in normal rats to evaluate the pharmacokinetics (PK) profile of CNP22 and certain CNP variants and the time courses of plasma cGMP concentration after single intravenous (i.v.) or subcutaneous (s.c.) administration of the CNP peptides. Plasma CNP immunoreactivity was determined by using a competitive radioimmunoassay (RIA) with an anti-CNP rabbit polyclonal antibody. Plasma cGMP concentration was determined by RIA using a commercially available kit (YAMASA cyclic GMP Assay kit, YAMASA Corporation).
Normal male rats, 7-8 weeks of age, were used. Recombinant wild-type CNP22, CNP37 and PEO24-CNP27(Arg4) (i.e., PEO24-GANRR-CNP22(K4R)) were evaluated. A dosage of 20 nmol/kg of each CNP peptide as a solution in 5% mannitol was intravenously injected once into the tail, or a dosage of 50 nmol/kg of each CNP peptide as a solution in 0.03 mol/L acetic acid buffer solution, pH 4.0, containing 1% (w/v) benzyl alcohol and 10% (w/v) sucrose, was subcutaneously injected once into the back.
Plasma CNP immunoreactivity was determined by the competitive RIA using anti-CNP rabbit polyclonal antibody. Standard and QC samples were prepared. Fifty uL of the standard, QC and assay samples were added, respectively, to test tubes containing 50 uL of RIA buffer. Diluted anti-CNP rabbit polyclonal antibody (100 uL) was added to the tubes. All tubes were kept at 4° C. overnight. ^125I-[Tyr^0]-CNP22 solution (100 uL) and rabbit IgG solution (100 uL) were added and left at approximately 4° C. overnight. One milliliter of anti-rabbit IgG goat serum containing 10% polyethylene glycol was added, vortexed and left at approximately 4° C. for at least 1 hour, and then the insoluble fraction was precipitated by centrifugation. After aspiration of the supernatant, the amount of radiation (gamma line) in the sediment was measured by a gamma-counter. Each sample was measured in duplicate, and the mean was adopted as the value determined.
Plasma CNP immunoreactivity was employed for pharmacokinetics (PK) analysis. PK analysis was performed using WINNONLIN® Professional (Pharsight Corporation). The PK profiles of CNP22, CNP37 and PEO24-CNP27(Arg4) after i.v. administration were calculated using PK parameters such as concentration at 0 hour (C0: extrapolation, pmol/mL), total body clearance (CLtot: mL/min/kg), distribution volume at steady state (Vdss: mL/kg), area under the plasma concentration-time curve (AUC: pmol·min/mL), mean residence time (MRT: min), and half-life (T1/2: min). The PK profiles of the CNP peptides after s.c. administration were calculated using PK parameters such as maximum plasma concentration (Cmax: pmol/mL), time to reach Cmax (Tmax: min), area under the plasma concentration-time curve (AUC: pmol·min/mL), mean residence time (MRT: min), and half-life (T1/2: min).

In another series the target is Recombinant human NEP (Homo sapiens, UniProt P08473). The experiment in a line: In vitro neutral endopeptidase (NEP) cleavage assay. Particulars: NEP digestion for […] in vitro. The method, boiled down: as §1
Recombinant human NEP, sequence (P08473 whole entry): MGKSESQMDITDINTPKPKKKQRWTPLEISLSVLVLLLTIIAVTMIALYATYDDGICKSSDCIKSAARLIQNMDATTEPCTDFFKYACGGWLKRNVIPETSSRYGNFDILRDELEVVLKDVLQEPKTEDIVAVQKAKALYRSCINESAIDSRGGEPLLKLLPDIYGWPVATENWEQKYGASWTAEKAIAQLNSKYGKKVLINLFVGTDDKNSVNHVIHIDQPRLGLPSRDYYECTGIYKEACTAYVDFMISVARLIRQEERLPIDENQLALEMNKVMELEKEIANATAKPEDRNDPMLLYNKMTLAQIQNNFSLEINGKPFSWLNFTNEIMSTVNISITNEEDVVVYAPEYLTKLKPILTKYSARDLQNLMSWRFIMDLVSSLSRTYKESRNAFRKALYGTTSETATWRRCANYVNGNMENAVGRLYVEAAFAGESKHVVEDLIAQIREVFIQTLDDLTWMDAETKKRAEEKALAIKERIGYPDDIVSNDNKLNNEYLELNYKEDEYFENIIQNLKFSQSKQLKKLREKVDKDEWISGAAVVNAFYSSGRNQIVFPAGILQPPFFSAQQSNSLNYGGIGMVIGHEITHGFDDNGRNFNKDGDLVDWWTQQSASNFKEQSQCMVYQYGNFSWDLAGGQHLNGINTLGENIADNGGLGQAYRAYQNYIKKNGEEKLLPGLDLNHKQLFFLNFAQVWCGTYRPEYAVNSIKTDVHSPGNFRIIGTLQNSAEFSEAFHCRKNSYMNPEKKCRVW
Series [4] is described as follows: in vivo. Particulars: FVB/N, mouse, plasma, iv, 100 nmol/kg. How it is done:
To determine CNP variants having increased NEP resistance, for efficacy study in FGFR3^ach mice (see Example 11), a pharmacokinetics (PK) study is carried out that compares the pharmacokinetics properties of CNP variants to wild-type CNP22. The FGFR3^ach mouse is a mutant mouse model of achondroplasia, containing a single transgene on a background of FVB mice.
Wild-type CNP22 or variant thereof is administered as a single intravenous (i.v.) dose in 6-week old wild-type FVB mice. Exemplary PK studies were conducted using wtCNP22. Six-week old FVB/N mice were intravenously administered wtCNP22 in a single dose at 100 nmol/kg.

Series [5] has as its target NPR-B (Homo sapiens, UniProt P20594). Particulars: read-out: affinity to NPR-B; cited from earlier work.
In another series the target is NPR-C (Homo sapiens, UniProt P17342). Conditions: read-out: affinity to NPR-C; cited from earlier work.
NPR-C, sequence (P17342 27-541, species assumed): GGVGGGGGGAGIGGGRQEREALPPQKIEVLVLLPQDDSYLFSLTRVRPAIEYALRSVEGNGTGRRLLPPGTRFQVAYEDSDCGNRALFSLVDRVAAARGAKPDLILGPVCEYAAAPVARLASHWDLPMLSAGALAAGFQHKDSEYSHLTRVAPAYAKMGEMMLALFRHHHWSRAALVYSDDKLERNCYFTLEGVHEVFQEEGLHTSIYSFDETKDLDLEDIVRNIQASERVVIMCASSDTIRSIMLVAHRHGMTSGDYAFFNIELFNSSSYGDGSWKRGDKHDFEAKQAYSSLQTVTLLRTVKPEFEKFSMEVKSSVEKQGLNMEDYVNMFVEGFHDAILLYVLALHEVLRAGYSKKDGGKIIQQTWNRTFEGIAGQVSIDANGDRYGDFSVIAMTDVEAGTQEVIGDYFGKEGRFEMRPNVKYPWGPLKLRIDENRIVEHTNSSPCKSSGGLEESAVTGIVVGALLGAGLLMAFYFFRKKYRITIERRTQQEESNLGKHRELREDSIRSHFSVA

neutral endopeptidase (NEP), sequence (P08473 whole entry): as the sequence (P08473 whole entry) above
NPR-B (Homo sapiens, UniProt P20594), sequence (P20594 23-1047, species assumed): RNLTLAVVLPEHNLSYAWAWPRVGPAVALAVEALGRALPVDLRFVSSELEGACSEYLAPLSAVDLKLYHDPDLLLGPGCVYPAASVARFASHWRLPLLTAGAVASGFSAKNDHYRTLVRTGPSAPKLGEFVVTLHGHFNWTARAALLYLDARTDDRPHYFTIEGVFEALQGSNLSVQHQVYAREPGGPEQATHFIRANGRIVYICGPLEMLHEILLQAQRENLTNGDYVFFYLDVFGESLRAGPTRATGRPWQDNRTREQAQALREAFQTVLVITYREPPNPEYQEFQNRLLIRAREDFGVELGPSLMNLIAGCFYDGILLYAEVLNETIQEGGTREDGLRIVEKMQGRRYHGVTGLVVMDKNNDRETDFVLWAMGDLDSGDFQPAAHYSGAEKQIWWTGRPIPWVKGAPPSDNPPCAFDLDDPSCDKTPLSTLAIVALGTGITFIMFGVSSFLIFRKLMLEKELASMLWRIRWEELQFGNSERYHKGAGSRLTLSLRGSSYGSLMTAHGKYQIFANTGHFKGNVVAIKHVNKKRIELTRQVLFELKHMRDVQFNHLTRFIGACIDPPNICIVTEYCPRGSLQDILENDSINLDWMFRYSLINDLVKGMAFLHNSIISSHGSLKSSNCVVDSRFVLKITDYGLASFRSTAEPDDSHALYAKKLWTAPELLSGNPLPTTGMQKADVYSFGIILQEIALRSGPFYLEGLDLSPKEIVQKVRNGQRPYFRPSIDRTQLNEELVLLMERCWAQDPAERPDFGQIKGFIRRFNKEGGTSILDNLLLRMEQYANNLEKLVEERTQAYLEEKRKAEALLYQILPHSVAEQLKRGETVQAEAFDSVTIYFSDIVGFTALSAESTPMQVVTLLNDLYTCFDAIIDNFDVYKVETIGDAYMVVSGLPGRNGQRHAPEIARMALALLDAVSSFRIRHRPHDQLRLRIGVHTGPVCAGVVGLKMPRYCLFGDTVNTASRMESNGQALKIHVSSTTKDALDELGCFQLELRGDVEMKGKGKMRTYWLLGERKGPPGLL

`CC[C@H](C)[C@@H]1NC(=O)[C@H](CCCNC(=N)N)NC(=O)[C@H](CC(=O)O)NC(=O)[C@H](CC(C)C)NC(=O)[C@H](CCCCN)NC(=O)[C@H](CC(C)C)NC(=O)CNC(=O)[C@H](Cc2ccccc2)NC(=O)[C@@H](NC(=O)CNC(=O)[C@H](CCCNC(=N)N)NC(=O)[C@H](CO)NC(=O)[C@H](CC(C)C)NC(=O)CNC(=O)[C@H](CCCNC(=N)N)NC(=O)[C@H](CCCNC(=N)N)NC(=O)[C@H](CC(N)=O)NC(=O)[C@H](C)NC(=O)CNC(=O)CCOCCOCCOCCOCCOCCOCCOCCOCCOCCOCCOCCOCCOCCOCCOCCOCCOCCOCCOCCOCCOCCOCCOCCOC)CSSC[C@@H](C(=O)O)NC(=O)CNC(=O)[C@H](CC(C)C)NC(=O)CNC(=O)[C@H](CO)NC(=O)[C@H](CCSC)NC(=O)[C@H](CO)NC(=O)CNC1=O` [PEO24-GANRR-CNP22, K4R (CNP27)] ({MeO(CH2CH2O)23CH2CH2CO}-GANRRGLSRGCFGLKLDRIGSMSGLGC-OH; disulfide 11-27) showed a half-life at 100 uM in series [1] above 160 min. Further, on NPR-B [2], the cGMP response relative to 1 uM CNP22 (%) at 0.01 µM came out at 28 ± 9% and the cGMP response relative to 1 uM CNP22 (%) at 1 µM worked out at 82 ± 18%. Further, in “in vivo [3]” (iv, 20 nmol/kg), the half-life was 22.3 min. Moreover, in “in vivo [3]” (sc, 50 nmol/kg), the bioavailability worked out at 60% and the half-life was determined as 78.1 min.

Regarding `CC[C@H](C)[C@@H]1NC(=O)[C@H](CCCNC(=N)N)NC(=O)[C@H](CC(=O)O)NC(=O)[C@H](CC(C)C)NC(=O)[C@H](CCCCN)NC(=O)[C@H](CC(C)C)NC(=O)CNC(=O)[C@H](Cc2ccccc2)NC(=O)[C@@H](NC(=O)CNC(=O)[C@H](CCCCN)NC(=O)[C@H](CO)NC(=O)[C@H](CC(C)C)NC(=O)CN)CSSC[C@@H](C(=O)O)NC(=O)CNC(=O)[C@H](CC(C)C)NC(=O)CNC(=O)[C@H](CO)NC(=O)[C@H](CCSC)NC(=O)[C@H](CO)NC(=O)CNC1=O` [CNP22, CNP-22], the “sites hydrolyzed on NEP digestion” value at Recombinant human NEP is reported as “all possible sites were unexpectedly hydrolyzed”. The same compound showed a half-life at 100 uM in series [1] of 80 min. Besides, on NPR-B [2], the cGMP response relative to 1 uM CNP22 (%) at 0.01 µM was 46 ± 10%. Also, at NPR-B [2], the cGMP response relative to 1 uM CNP22 (%) at 1 µM worked out at 100 ± 13%. In addition, in “in vivo [3]” (in vivo, iv, 20 nmol/kg), the AUC is 5.33 nM·h. Further, the half-life was 1.42 min in the series “in vivo [3]” (in vivo, iv, 20 nmol/kg); 10 min in the series “in vivo [3]” (in vivo, sc, 50 nmol/kg); 0.76 to 1.03 min in “in vivo [4]”. Moreover, in the series “in vivo [3]” (in vivo, sc, 50 nmol/kg), the bioavailability came out at 19%. Besides, the Kd at NPR-B [5] is 0.007 to 0.03 nM; on NPR-C it was 0.011 to 0.14 nM.

By half-life is commonly meant how long it takes for the measured level to halve. Lower therefore signals rapid decline. As usually defined, the bioavailability is dose-corrected exposure relative to a reference, in per cent. A low value points to little systemic uptake. Usually AUC stands for concentration integrated over time. A high value points to more exposure.
